This is an account of results in ChEMBL document CHEMBL3400043, “Design, synthesis and biological evaluation of GY3-based derivatives for anti-type 2 diabetes activity” (Bioorg Med Chem Lett, 2015).

For series [1], the system named is HepG2. The series is described as follows: Induction of glucose consumption in human HepG2 cells at 10^-5 M after 24 hrs by glucose oxidase method (reference value: 2 +/- 0.09 mM). Format: functional.
In series [2] the test system is HepG2. The series is described as follows: Induction of glucose consumption in human HepG2 cells at 10^-5 M after 24 hrs by glucose oxidase method relative to control. Format: functional.
For series [3], the target named is T1, Peroxisome proliferator-activated receptor gamma (Homo sapiens) (UniProt P37231).
T1 sequence (whole entry): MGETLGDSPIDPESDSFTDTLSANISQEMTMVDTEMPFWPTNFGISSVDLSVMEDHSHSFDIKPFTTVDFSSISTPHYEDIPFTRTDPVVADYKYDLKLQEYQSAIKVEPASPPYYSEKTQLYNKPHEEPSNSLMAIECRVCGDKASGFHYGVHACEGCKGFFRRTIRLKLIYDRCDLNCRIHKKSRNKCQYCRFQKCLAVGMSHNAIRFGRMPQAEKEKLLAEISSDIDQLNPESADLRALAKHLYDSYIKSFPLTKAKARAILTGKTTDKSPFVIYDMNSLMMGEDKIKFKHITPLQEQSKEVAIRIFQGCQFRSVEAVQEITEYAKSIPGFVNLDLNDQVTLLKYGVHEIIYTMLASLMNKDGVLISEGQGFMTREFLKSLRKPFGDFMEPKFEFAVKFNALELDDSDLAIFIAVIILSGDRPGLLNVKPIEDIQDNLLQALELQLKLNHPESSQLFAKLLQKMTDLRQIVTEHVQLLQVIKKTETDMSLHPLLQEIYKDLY
Description: Agonist activity at human PPARgamma expressed in U2OS cells coexpressing human RXR assessed as luciferase activity at 10 uM after 24 hrs by transactivation assay relative to control. The format is cell-based.

Series [4] relates to Mus musculus. Description: Toxicity in eight week old female db/db mouse assessed as effect on body weight at 30 mg/kg, intragastric for 3 weeks. The conditions noted are these: in vivo, po, 504 h. The format is organism-based. More on the design: dose 30 mg/kg, route intragastric.
The subject of series [5] is HepG2. The series is described as follows: Induction of glucose consumption in human HepG2 cells at 10^-6 M after 24 hrs by glucose oxidase method relative to control. The format is functional.
The subject of series [6] is HepG2. Description: Induction of glucose consumption in human HepG2 cells at 10^-7 M after 24 hrs by glucose oxidase method relative to control. The format is functional.
Series [7] concerns Mus musculus. Description: Hypoglycemic effect in eight week old female db/db mouse assessed as reduction in blood glucose level at 30 mg/kg, intragastric for 1 week. The format is functional. The conditions noted are these: po, 168 h.
Series [8] deals with Mus musculus. Description: Hypoglycemic effect in eight week old female db/db mouse assessed as reduction in blood glucose level at 30 mg/kg, intragastric for 3 weeks. Format: functional. The following applies: po, 504 h.
For series [9], the system named is Mus musculus. Description: Reduction in total cholesterol level in eight week old female db/db mouse at 30 mg/kg, intragastric for 3 weeks. The format is functional, organism-based. More on the design: dose 30 mg/kg.
Series [10] deals with Mus musculus. The series is described as follows: Hypoglycemic effect in eight week old female db/db mouse assessed as reduction in blood glucose level at 30 mg/kg, intragastric for 2 weeks. Format: functional. The conditions noted are these: po, 336 h.
For series [11], the system named is Mus musculus. The series is described as follows: Hypoglycemic effect in eight week old female db/db mouse assessed as reduction in fasting triglyceride level at 30 mg/kg, intragastric for 3 weeks. Format: functional, organism-based. More on the design: dose 30 mg/kg.
Series [12] relates to Mus musculus. The series is described as follows: Toxicity in eight week old female db/db mouse assessed as body weight increase at 30 mg/kg, intragastric for 3 weeks. The following applies: in vivo, po, 504 h. More on the design: dose 30 mg/kg, route intragastric. The format is organism-based.
The subject of series [13] is HepG2. Description: Induction of glucose consumption in human HepG2 cells at 10^-3 M after 24 hrs by glucose oxidase method relative to control. Format: functional.
The test system of series [14] is HepG2. The series is described as follows: Induction of glucose consumption in human HepG2 cells at 10^-3 M after 24 hrs by glucose oxidase method (reference value: 2 +/- 0.09 mM). The format is functional.

Active and inactive are the calls of the source. No cut-off for these calls is given here.

In the case of `C[C@@H]1[C@@H](CC(=O)O)c2cc(OCc3ccccc3)ccc2N1C(=O)C12CC3CC(CC(C3)C1)C2`, the Activity in the series with HepG2 [1] was 2.1 mM; with HepG2 [2] it was 4.8%; in the series on Mus musculus [4], “Non-toxic”. Further, the Ratio in series [3] came out at 1.63.
In the case of `COc1ccc(C(=O)N2c3ccc(OCc4ccccc4)cc3[C@H](CC(=O)O)[C@H]2C)cc1`, the Activity with HepG2 [1] is reported as 2.22 mM; with HepG2 [2], 10.8%. The Ratio in [3] is 2.14.
Turning to `C[C@@H]1[C@@H](CC(=O)O)c2cc(OCc3ccccc3)ccc2N1C(=O)c1ccc(Cl)cc1`, the values for the Activity with HepG2 [1] and in the series with HepG2 [2] were 2.4 mM and 20%, respectively. Moreover, the Ratio in series [3] worked out at 3.51.
Taken in the same sequence, the figures for `C[C@@H]1[C@@H](CC(=O)O)c2cc(OCCc3ccccc3)ccc2N1C(=O)c1ccc(Cl)cc1` were 2.05 mM, 2.1% and 2.
As to `CN(CCOc1ccc(CC2SC(=O)NC2=O)cc1)c1ccccn1` (stereo not drawn) [ROSIGLITAZONE], the values for the Activity in the series on HepG2 [1] and with HepG2 [2] were 2.53 mM and 26.5%, respectively.
On to `C[C@H]1[C@@H](CC(=O)O)c2cc(OCc3ccccc3)ccc2N1C(=O)c1ccc(Cl)cc1`, for which the Activity in the series with HepG2 [1] turned out to be 2.01 mM; in the series on HepG2 [2], 0.6%. For the same compound, in [3], the Ratio stood at 1.72.
Take `C[C@@H]1[C@@H](CC(=O)O)c2cc(OCc3ccccc3)ccc2N1C(=O)c1ccc(C#N)cc1`: the Activity in the series with HepG2 [1] is recorded as 2.26 mM; in the series with HepG2 [2], 12.6%. The Ratio in series [3] was 2.05.
With `C[C@@H]1[C@@H](CC(=O)O)c2cc(OCc3ccccc3)ccc2N1S(=O)(=O)c1ccc(Cl)cc1`, the Activity is on record as 2.33 mM in the series with HepG2 [1] and 16.3% with HepG2 [2]. Moreover, the Ratio in series [3] is 2.37.
For `Cc1c(CCCC(=O)O)c2cc(OCc3ccccc3)ccc2n1C(=O)c1ccc(Cl)cc1`, the Activity with HepG2 [1] is 2.55 mM; with HepG2 [2] it was 27.3%; in the series with HepG2 [5] it was 8.3%; in the series with HepG2 [6] it was 12.5%; in the series with Mus musculus [4] it was “Non-toxic”. In addition, in series [3], the Ratio was found to be 3.28.
For `CC(Oc1ccc2c(c1)[C@H](CC(=O)O)[C@@H](C)N2C(=O)c1ccc(Cl)cc1)c1ccccc1` (stereo partly drawn), the Activity turned out to be 2.2 mM with HepG2 [1] and 9.8% with HepG2 [2]. For the same compound, the Ratio in series [3] amounted to 1.66.
By inhibition in vivo is commonly meant the relative decrease from the control value, in per cent. For the compound `Cc1c(CCCC(=O)O)c2cc(OCc3ccccc3)ccc2n1S(=O)(=O)c1ccc(Cl)cc1`, the Activity in the series with HepG2 [1] is recorded as 2.78 mM; in the series with HepG2 [2] it was 38.9%; in the series with HepG2 [5], 15.3%; with HepG2 [6], 18.2%; with Mus musculus [4] it was “Non-toxic”. Further, the Ratio in series [3] amounted to 2.44. In addition, the results for the inhibition in vivo at 30 mg/kg with Mus musculus [7] and with Mus musculus [8] were above 25% and 13.9%, respectively. Moreover, in the series with Mus musculus [9], the inhibition result was “Active”.
With `C[C@@H]1[C@@H](CC(=O)O)c2cc(OCc3ccccc3)ccc2N1C(=O)c1ccncc1`, the Activity in the series on HepG2 [1] is given as 2.46 mM; with HepG2 [2] it was 22.6%; in the series with HepG2 [5], -4.6%; in the series on HepG2 [6] it was -4.1%. For the same compound, the Ratio in series [3] amounted to 1.73. For the same compound, the inhibition in vivo at 30 mg/kg in the series on Mus musculus [10] was above 30%; in the series on Mus musculus [8], 14.9%. Further, the inhibition result in the series on Mus musculus [11] was “Active”.
Turning to `C[C@@H]1[C@@H](CC(=O)O)c2cc(OCc3ccncc3)ccc2N1C(=O)c1ccc(Cl)cc1`, the Activity in the series with HepG2 [1] is given as 1.7 mM; with HepG2 [2] it was -15.4%. Moreover, the Ratio in series [3] was 1.49.
Regarding `C[C@@H]1[C@@H](CC(=O)O)c2cc(OCc3ccccc3)ccc2N1C(=O)c1ccccc1`, the Activity in the series on HepG2 [1] worked out at 2.14 mM; with HepG2 [2] it was 6.9%. For the same compound, the Ratio in series [3] worked out at 2.05.
As for `Cc1c(CCC(=O)O)c2cc(OCc3ccccc3)ccc2n1S(=O)(=O)c1ccc(Cl)cc1`, the Activity in the series on HepG2 [1] was found to be 2.45 mM; in the series on HepG2 [2] it was 22.1%; in the series on HepG2 [5], 10.5%; with HepG2 [6], 17.7%. In addition, in series [3], the Ratio was 2.48.
On to `CCc1ccc(CCOc2ccc(CC3SC(=O)NC3=O)cc2)nc1` (stereo not drawn) [PIOGLITAZONE], for which the values for the inhibition in vivo at 30 mg/kg in the series on Mus musculus [7], in the series on Mus musculus [10] and in the series with Mus musculus [8] were above 25%, above 30% and 30.6%, respectively. In addition, in the series on Mus musculus [12], the Activity was 16.3%. Further, the inhibition entry in the series on Mus musculus [11] was “Active”.
Turning to `COc1ccc(CC(=O)N2c3ccc(OCc4ccccc4)cc3[C@H](CC(=O)O)[C@H]2C)cc1OC`, the Activity in the series with HepG2 [1] stood at 2.2 mM; with HepG2 [2] it was 9.9%. The Ratio in series [3] was found to be 2.
With `C[C@@H]1[C@@H](CC(=O)O)c2cc(OCCCCc3ccccc3)ccc2N1C(=O)c1ccc(Cl)cc1`, the Activity is 1.98 mM with HepG2 [1] and -1.2% in the series with HepG2 [2]. In addition, the Ratio in series [3] was determined as 1.81.
Take `CN(C)C(=N)NC(=N)N` [METFORMIN]: the Activity turned out to be 51% in the series on HepG2 [13] and 3.03 mM with HepG2 [14].
Consider `C[C@@H]1[C@@H](CC(=O)O)c2cc(OCc3ccccc3)ccc2N1C(=O)Cc1ccc(Cl)cc1`, for which the results for the Activity with HepG2 [1] and with HepG2 [2] were 2.35 mM and 17%, respectively. Besides, in series [3], the Ratio is 2.2.
Regarding `Cc1c(CCC(=O)O)c2cc(OCc3ccccc3)ccc2n1C(=O)c1ccc(Cl)cc1`, the Activity is given as 2.53 mM in the series on HepG2 [1]; 26.1% in the series with HepG2 [2]; 14.1% with HepG2 [5]; 19.2% in the series with HepG2 [6]; “Non-toxic” in the series with Mus musculus [4]. For the same compound, the Ratio in series [3] was 2.72.
Take `C[C@@H]1[C@@H](CC(=O)O)c2cc(OCc3ccccc3)ccc2N1C(=O)c1ccc(C(F)(F)F)cc1`: the Activity in the series on HepG2 [1] is on record as 2.2 mM; in the series on HepG2 [2], 9.8%. Moreover, the Ratio in series [3] was 1.72.
With `C[C@@H]1[C@@H](CC(=O)O)c2cc(OCc3cccnc3)ccc2N1C(=O)c1ccc(Cl)cc1`, the Activity with HepG2 [1] was 1.87 mM; in the series with HepG2 [2], -6.7%. For the same compound, in [3], the Ratio stood at 1.62.
Regarding `Cc1c(CC(=O)O)c2cc(OCc3ccccc3)ccc2n1C(=O)c1ccc(Cl)cc1`, the Activity with HepG2 [1] was 2.44 mM; with HepG2 [2] it was 21.9%. In [3], the Ratio is 3.82. The inhibition in vivo at 30 mg/kg with Mus musculus [7] was above 25%; with Mus musculus [10], above 30%; with Mus musculus [8], 13.5%.
As to `C[C@@H]1[C@@H](CC(=O)O)c2cc(OCc3ccccc3)ccc2N1C(=O)c1ccc(F)cc1`, the Activity in the series with HepG2 [1] is recorded as 2.24 mM; with HepG2 [2] it was 11.6%. The Ratio in series [3] was 1.74.
